Measurements as given in patent US20220211477A1, “SURGICAL SYSTEM AND METHODS OF USE” (priority 2021, published 2022).

Tests used:
myofibroblast formation = conditions: capsular contracture with breast implants, Ajmal et al. (2003); cited from earlier work
fibrinolysis = assay: prevention / reversal of fibrinolysis; conditions: one tenth of the doses used in the non-GLP acute porcine study

| Compound | myofibroblast formation (myofibroblast formation) | effect in reversing fibrinolysis (fibrinolysis) |
| --- | --- | --- |
| O=S(=O)([O-])CCS.[Na+] [MESNA, sodium 2-mercaptoethane sulfonate] | diminish myofibroblast formation |  |
| NC[C@H]1CC[C@H](C(=O)O)CC1 [tranexamic acid, trans-4-(aminomethyl)cyclohexanecarboxylic acid] |  | effective in reversing fibrinolysis |
